For 22 molecules, IC50 results are on record in US20230113609A1, “SSTR5 ANTAGONISTS” (Kallyope, Inc., priority 2019, published 2023).

SMILES strings stand for the structures. Where only a bound is given, the exact number is not on record here.

T1 sequence (P35346 whole entry): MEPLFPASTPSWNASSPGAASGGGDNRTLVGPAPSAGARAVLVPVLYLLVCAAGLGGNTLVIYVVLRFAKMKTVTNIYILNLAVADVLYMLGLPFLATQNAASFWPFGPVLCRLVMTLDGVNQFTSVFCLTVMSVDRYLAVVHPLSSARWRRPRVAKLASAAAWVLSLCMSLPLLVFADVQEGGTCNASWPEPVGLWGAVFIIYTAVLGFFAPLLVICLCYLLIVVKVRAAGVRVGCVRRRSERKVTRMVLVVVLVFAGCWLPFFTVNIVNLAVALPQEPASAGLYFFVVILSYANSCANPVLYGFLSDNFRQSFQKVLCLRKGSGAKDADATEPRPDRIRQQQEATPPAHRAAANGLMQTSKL

This experiment concerns the target T1, human SSTR5 (Homo sapiens, UniProt P35346).
T1 construct: expressed in transfected cells
The experiment can be described thus: Inositol phosphate accumulation assay (IP1 HTRF, antagonist mode). The experiment is classed as cell-based. As to conditions: CHO-K1 cells co-expressing human SSTR5 with Gqi5, SST28 agonist at concentration generating 90% of full activation. The text has this: CHO-K1 cells stably co-expressing human SSTR5 with Gqi5 were developed using Jump-In technology from Thermo-Fisher. Gqi5 is the mouse G alpha q protein, that was modified to interact with Gi-coupled GPCRs as described previously (Coward, P.; Chan, S. D.; Wada, H. G.; Humphries, G. M.; Conklin, B. R. Chimeric G proteins Allow a High-Throughput Signaling Assay of Gi-Coupled Receptors. Anal Biochem. 1999, 270(2),242-248).
Co-expression of Gqi5 with SSTR5 allowed monitoring of SSTR5 activity by following IP1 accumulation. The assay was performed in a 384-well plate format using the IP1 assay kit from Cis-Bio in an antagonist mode, i.e., pre-incubation with antagonist following by receptor activation by agonist at a concentration generating 90% of full activation. Frozen cells expressing human SSTR5 were thawed, washed, and then plated in DMEM supplemented with 10% FBS and non-essential amino acids. 40 μL of 2.5×10^5 cells/mL were plated on a Poly D-Lysine coated 384-well white plate. The cells were then incubated for 16 hr. at 37° C/5% CO2. After 16 hour the medium was removed, and 10 μL of stimulation buffer was added to the cells. Test compounds were dissolved in DMSO at concentrations 2000-fold that of the final assay concentrations. 7.5 nLcompound solutions were transferred to the cell plates using a Labcyte Echo® acoustic liquid handler. The plates were then incubated for 15 minutes at 37° C/5%CO2. After the first incubation, 5 μL of 30 nM SST28 were added to the cells, and the cells were incubated for 90 minutes at 37° C/5%CO2. 5 μL of detection buffer (prepared as described in the IP-1 kit) was added to each well, and the plates were incubated at RT for 1 hour.
TR-FRET was measured using a ClarioSTAR plate reader, calculating the ratio between emissions at 665 nm and 620 nm (HTRF ratio). The HTRF ratio for positive (Max) and negative (Min) controls were used to normalize HTRF data and generate values for % inhibition. IC50 and maximal inhibition values were determined using a standard 4-parameter fit.
Background: Time-resolved FRET reads energy transfer from a long-lived donor to a nearby acceptor.
`CCOc1cc(C(=O)OC)c(C2CC2)cc1CN1CCC2(CC1)CC(=O)N(c1ccc(CCCC(=O)NC(C)(C)C(=O)NCCN(C)C)cc1)C2` [Example 17, methyl 2-cyclopropyl-4-((2-(4-(4-((1-((2-(dimethylamino)ethyl)amino)-2-methyl-1-oxopropan-2-yl)amino)-4-oxobutyl)phenyl)-3-oxo-2.8-diazaspiro[4.5]decan-8-yl)methyl)-5-ethoxybenzoate]: the IC50 (usually the midpoint of a concentration-inhibition curve) lay in the range of 1000 to 5000 nM.

`CCOc1cc(C(=O)OC)c(C2CC2)cc1CN1CCC2(CC1)CC(=O)N(c1ccc(C(=O)NCCO)cc1)C2` [Example 20, methyl 2-cyclopropyl-5-ethoxy-4-((2-(4-((2-hydroxyethyl)carbamoyl)phenyl)-3-oxo-2,8-diazaspiro[4.5]decan-8-yl)methyl)benzoate] returned an IC50 not above 100 nM.

`CCOc1cc(CN2CCC3(CC2)CN(c2ccc(C(=O)NCCS(=O)(=O)O)cc2)C(=O)O3)cc(OCC)c1-c1ccc(F)cc1` [Example 12, 2-(4-(8-((2,6-diethoxy-4′-fluoro-[1,1′-biphenyl]-4-yl)methyl)-2-oxo-1-oxa-3,8-diazaspiro[4.5]decan-3-yl)benzamido)ethane-1-sulfonic acid] returned a 50% inhibitory concentration (IC50) of more than 5000 nM. Take `CCOc1cc(C(=O)OC)c(C2CC2)cc1CN1CCC2(CC1)CC(=O)N(c1ccc(C(=O)NC[C@H](O)CO)cc1)C2` [Example 35, methyl (S)-2-cyclopropyl-4-((2-(4-((2,3-dihydroxypropyl)carbamoyl)phenyl)-3-oxo-2,8-diazaspiro[4.5]decan-8-yl)methyl)-5-ethoxybenzoate]: the 50% inhibitory concentration (IC50) fell in the range of 100 to 1000 nM.

Molecule `CCOc1cc(C(=O)OC)c(C2CC2)cc1CN1CCN(C(=O)Oc2ccc(C(=O)NC[C@H](O)[C@@H](O)[C@H](O)[C@H](O)CO)cc2)CC1` [Example 96] displayed a concentration for half-maximal inhibition (IC50) of 100 to 1000 nM.

`CCOc1cc(C(=O)OC)c(C2CC2)cc1CN1CCC2(CC1)CC(=O)N(c1ccc(C(=O)NC[C@@H](O)CO)cc1)C2` [Example 36, methyl (R)-2-cyclopropyl-4-((2-(4-((2,3-dihydroxypropyl)carbamoyl)phenyl)-3-oxo-2,8-diazaspiro[4.5]decan-8-yl)methyl)-5-ethoxybenzoate] gave a concentration for half-maximal inhibition (IC50) of 100 to 1000 nM. Under `CCOc1cc(-c2nc(C)no2)c(C2CC2)cc1CN1CCC2(CC1)CN(c1ccc(C(=O)NCCCS(=O)(=O)O)cc1)C(=O)N2` [Example 68, 3-(4-(8-(5-cyclopropyl-2-ethoxy-4-(3-methyl-1,2,4-oxadiazol-5-yl)benzyl)-2-oxo-1,3,8-triazaspiro[4.5]decan-3-yl)benzamido)propane-1-sulfonic acid] stands 100 to 1000 nM.

Regarding `CCOc1cc(C(=O)OC)c(C2CC2)cc1CN1CCC2(CC1)CN(c1ccc(C(=O)NC[C@H](O)[C@@H](O)[C@H](O)[C@H](O)CO)cc1)C(=O)O2` [Example 54, methyl 2-cyclopropyl-5-ethoxy-4-((2-oxo-3-(4-(((2S,3R,4R,5R)-2,3,4,5,6-pentahydroxyhexyl)carbamoyl)phenyl)-1-oxa-3,8-diazaspiro[4.5]decan-8-yl)methyl)benzoate], the half-inhibitory concentration (IC50) is not above 100 nM. `CCOc1cc(-c2ccc(F)cc2)c(C2CC2)cc1CN1CCC2(CC1)CN(c1ccc(C(=O)NCCO)cc1)C(=O)N2` [Example 69, 4-(8-((2-cyclopropyl-5-ethoxy-4′-fluoro-[1,1′-biphenyl]-4-yl)methyl)-2-oxo-1,3,8-triazaspiro[4.5]decan-3-yl)-N-(2-hydroxyethyl)benzamide] gave a 50% inhibitory concentration (IC50) not above 100 nM. `CCOc1cc(-c2ccc(F)cc2)c(C2CC2)cc1CN1CCC2(CC1)CN(c1ccc(C(=O)NCCOCCOCCO)cc1)C(=O)N2` [Example 70, 4-(8-((2-cyclopropyl-5-ethoxy-4′-fluoro-[1,1′-biphenyl]-4-yl)methyl)-2-oxo-1,3,8-triazaspiro[4.5]decan-3-yl)-N-(2-(2-(2-hydroxyethoxy)ethoxy)ethyl)benzamide] showed a half-inhibitory concentration (IC50) not above 100 nM.

Regarding `CCOc1cc(C(=O)OC)c(C2CC2)cc1CN1CCC2(CC1)CC(=O)N(c1ccc(CC(=O)NCCNC(=O)NC(CO)(CO)CO)cc1)C2` [Example 14, methyl 2-cyclopropyl-4-((2-(4-(2-((2-(3-(1,3-dihydroxy-2-(hydroxymethyl)propan-2-yl)ureido)ethyl)amino)-2-oxoethyl)phenyl)-3-oxo-2,8-diazaspiro[4.5]decan-8-yl)methyl)-5-ethoxy benzoate], the IC50 was more than 5000 nM.

`CCOc1cc(CN2CCC3(CC2)CN(c2ccc(C(=O)NCCCS(=O)(=O)O)cc2)C(=O)O3)cc(OCC)c1-c1ccc(F)cc1` [Example 11, 3-(4-(8-((2,6-diethoxy-4′-fluoro-[1,1′-biphenyl]-4-yl)methyl)-2-oxo-1-oxa-3,8-diazaspiro[4.5]decan-3-yl)benzamido)propane-1-sulfonic acid]: the half-maximal inhibitory concentration (IC50) is not above 100 nM. In turn, `CCOc1cc(CN2CCC3(CC2)CN(c2ccc(C(=O)NCCCC(=O)NCCO)cc2)C(=O)O3)cc(OCC)c1-c1ccc(F)cc1` [compound 1, 4-(8-((2,6-diethoxy-4′-fluoro-[1,1′-biphenyl]-4-yl)methyl)-2-oxo-1-oxa-3,8-diazaspiro [4.5]decan-3-yl)-N-(4-((2-hydroxyethyl)amino)-4-oxobutyl)benzamide] had a 50% inhibitory concentration (IC50) of 100 to 1000 nM.

With `CCOc1cc(CN2CCC3(CC2)CN(c2ccc(C(=O)NCCCCS(=O)(=O)O)cc2)C(=O)O3)cc(OCC)c1-c1ccc(F)cc1` [Example 10, 4-(4-(8-((2,6-diethoxy-4′-fluoro-[1,1′-biphenyl]-4-yl)methyl)-2-oxo-1-oxa-3,8-diazaspiro[4.5]decan-3-yl)benzamido)butane-1-sulfonic acid], the IC50 was not above 100 nM. For the molecule `CCOc1cc(C(=O)OC)c(C2CC2)cc1CN1CCC2(CC1)CC(=O)N(c1ccc(C(=O)NCCCCS(N)(=O)=O)cc1)C2` [Example 51, methyl 2-cyclopropyl-5-ethoxy-4-((3-oxo-2-(4-((4-sulfamoylbutyl)carbamoyl)phenyl)-2,8-diazaspiro[4.5]decan-8-yl)methyl)benzoate], the half-maximal inhibitory concentration (IC50) was in the range of 100 to 1000 nM. Under `CCOc1cc(-c2ccc(F)cc2)c(C2CC2)cc1CN1CCC2(CC1)CN(c1ccc(S(=O)(=O)NCCCNC(=N)N)cc1)C(=O)O2` [compound 80, 4-(8-((2-cyclopropyl-5-ethoxy-4′-fluoro-[1,1′-biphenyl]-4-yl)methyl)-2-oxo-1-oxa-3,8-diazaspiro [4.5]decan-3-yl)-N-(3-guanidinopropyl)benzenesulfonamide] stands not above 100 nM; under `CCOc1cc(CN2CCC3(CC2)CN(c2ccc(C(=O)NCCC[N+](C)(C)C)cc2)C(=O)O3)cc(OCC)c1-c1ccc(F)cc1` [Example 6, 3-(4-(8-((2,6-diethoxy-4′-fluoro-[1,1′-biphenyl]-4-yl)methyl)-2-oxo-1-oxa-3,8-diazaspiro[4.5]decan-3-yl)benzamido)-N,N,N-trimethylpropan-1-aminium], 100 to 1000 nM. Then `CCOc1cc(-c2ccc(F)cc2)c(C2CC2)cc1CN1CCC2(CC1)CN(c1ccc(C(=O)NCCS(=O)(=O)O)cc1)C(=O)N2` [Example 71, 2-(4-(8-((2-cyclopropyl-5-ethoxy-4′-fluoro-[1,1′-biphenyl]-4-yl)methyl)-2-oxo-1,3,8-triazaspiro[4.5]decan-3-yl)benzamido)ethane-1-sulfonic acid], with not above 100 nM; and `CCOc1cc(C(=O)OC)c(C2CC2)cc1CN1CCC2(CC1)CN(c1ccc(C(=O)NCCOCCO)cc1)C(=O)N2` [Example 76, methyl 2-cyclopropyl-5-ethoxy-4-((3-(4-((2-(2-hydroxyethoxy)ethyl)carbamoyl)phenyl)-2-oxo-1,3,8-triazaspiro[4.5]decan-8-yl)methyl)benzoate], with 100 to 1000 nM; and `CCOc1cc(-c2ccc(F)cc2)c(C2CC2)cc1CN1CCC2(CC1)CN(c1ccc(S(=O)(=O)NCCOCCOCCO)cc1)C(=O)O2` [Example 83, 4-(8-((2-cyclopropyl-5-ethoxy-4′-fluoro-[1,1′-biphenyl]-4-yl)methyl)-2-oxo-1-oxa-3,8-diazaspiro[4.5]decan-3-yl)-N-(2-(2-(2-hydroxyethoxy)ethoxy)ethyl)benzenesulfonamide], with not above 100 nM. Under `CCOc1cc(C(=O)OC)c(C2CC2)cc1CN1CCC2(CC1)CN(c1ccc(C(=O)NCCCS(N)(=O)=O)cc1)C(=O)O2` [Example 59, methyl 2-cyclopropyl-5-ethoxy-4-((2-oxo-3-(4-((3-sulfamoylpropyl)carbamoyl)phenyl)-1-oxa-3,8-diazaspiro[4.5]decan-8-yl)methyl)benzoate] stands not above 100 nM; under `CCOc1cc(CN2CCC3(CC2)CN(c2ccc(C(=O)NC[C@H](O)[C@@H](O)[C@H](O)[C@H](O)COC(=O)CCC(=O)O)cc2)C(=O)O3)cc(OCC)c1-c1ccc(F)cc1` [Example 2, 4-(((2R,3R,4R,5S)-6-(4-(8-((2,6-diethoxy-4′-fluoro-[1,1′-biphenyl]-4-yl)methyl)-2-oxo-1-oxa-3,8-diazaspiro[4.5]decan-3-yl)benzamido)-2,3,4,5-tetrahydroxyhexyl)oxy)-4-oxobutanoic acid], 100 to 1000 nM.
